Each compound was assayed on CWR22RV1 cells (assay: Inhibition of proliferation of CWR22RV1 cells (CCK-8)). Conditions: Homo sapiens, 144 h, 6 days.
Format: cell-based, human
Procedure: • CWR22RV1 cell line (Cell Bank of Chinese Academy of Sciences, TCHu100) • FBS (Gibco, Cat. No. 10099-141) • 0.01M PBS (Biosharp, Cat. No. 162262) • RIPM1640 (Hyclone, Cat. No. 308090.01) • Penicillin-Streptomycin (Hyclone, Cat. No. SV30010) • Cell counting kit-8 (Signalway Antibody, Cat. No. CP002) • DMSO (Sigma, Cat. No. D5879) • Centrifuge Tube, 15 ml (Excell Bio, Cat. No. CS015-0001) • Cell Culture Dish, (Excell Bio, Cat. No. CS016-0128) • 96-well cell culture cluster (Corning, Cat. No. 3599) • 2. Experimental method (1) Preparation of Buffer
1) CWR22RV1 cells were subcultured in cell culture medium, and the cells in good growth condition were seeded in a 96-well plate, 80 μL for each well, thus the number of cells per well was 1500, then the plate was cultured overnight in a 37° C., 5% CO2 cell incubator.
2) The drug was prepared with dimethyl sulfoxide (DMSO) as a 30 mM stock solution. Prior to use, the solution was diluted 3 times with DMSO, and then diluted with a 3-fold gradient to obtain 9 concentration gradients. Then, each concentration of the compound was further diluted 200 times with the culture solution (to ensure that DMSO concentration in the culture system was 0.1%), 2 repeat wells for each concentration. The diluted solution of each compound (20 μL) was added to the cell culture well (with a final concentration of 10 μM, 3.3 μM, 1.1 μM . . . ), and shaken gently for mixing. In addition, three negative control wells containing only cells and three blank control wells containing only culture medium (20 μL DMSO diluted 200 times with culture medium being added to six wells) were included.
(1) After culturing for 6 days, 10 μL CCK-8 was added to each well and cultured for additional 2.5 h in a 37° C., 5% CO2 cell incubator.
(2) The absorbance (OD value) at 450 nm was measured with a multifunctional microplate reader.
(3) The data was analyzed by the Dose-response-inhibition equation in the software GraphPad Prism6, and the IC50 value was obtained.
With `Cn1cc(-c2cc(S(C)(=O)=O)ccc2N2CCC3(CC2)CC3C#N)c2cc[nH]c2c1=O` (stereo not drawn) [Compound 181, 6-(2-(6-methyl-7-oxo-6,7-dihydro-1H-pyrrolo[2,3-c]pyridin-4-yl)-4-(methylsulfonyl)phenyl)-6-aza-spiro[2.5]octan-1-cyanide] the IC50 was 0.09 µM.

Same assay, conditions: Homo sapiens, CWR22Rv1, 144 h, 6 days
Work on `[2H]C([2H])([2H])n1cc(-c2cc(NS(=O)(=O)C3CC3)ccc2N2CC3(COC3)C2)c2cc[nH]c2c1=O` [Compound 51, N-(3-(6-trideuteromethyl-7-oxo-6,7-dihydro-1H-pyrrolo[2,3-c]pyridin-4-yl)-4-(2-oxa-6-aza-spiro[3.3]heptan-6-yl)phenyl) cyclopropanesulfonamide] yielded an IC50 of 0.49 µM. Compound `[2H]C([2H])([2H])n1cc(-c2cc(NS(=O)(=O)CC)ccc2N2CCC3(CC2)CC3C(=O)OCC)c2cc[nH]c2c1=O` (stereo not drawn) [Compound 52] has an IC50 of 0.52 µM. Work on `[2H]C([2H])([2H])n1cc(-c2cc(NS(=O)(=O)CC)ccc2N2CCC3(CC2)CC3C(=O)O)c2cc[nH]c2c1=O` (stereo not drawn) [Compound 53, 6-(4-(ethylsulfonamide)-2-(6-trideuteromethyl-7-oxo-6,7-dihydro-1H-pyrrolo[2,3-c]pyridin-4-yl)phenyl)-6-aza-spiro[2.5]octan-1-carboxylic acid] yielded an IC50 of 0.55 µM. `[2H]C([2H])([2H])n1cc(-c2cc(S(C)(=O)=O)ccc2N2CCC3(CC3)C2)c2cc[nH]c2c1=O` [Compound 54, 6-trideuteromethyl-4-(5(methylsulfonyl)-2-(5-aza-spiro[2.4]heptan-5-yl)phenyl)-1H-pyrrolo[2,3-c]pyridin-7(6H)-one] was tested, and the IC50 was 0.018 µM. Compound `[2H]C([2H])([2H])n1cc(-c2cc(S(C)(=O)=O)ccc2N2CCCC3(CC3)C2)c2cc[nH]c2c1=O` [Compound 57, 6-trideuteromethyl-4-(5(methylsulfonyl)-2-(5-aza-spiro[2.5]octan-5-yl)phenyl)-1H-pyrrolo[2,3-c]pyridin-7(6H)-one] has an IC50 of 0.025 µM. With `[2H]C([2H])([2H])n1cc(-c2cc(S(=O)(=O)C3CC3)ccc2N2CCCC3(CC3)C2)c2cc[nH]c2c1=O` [Compound 58, 4-(5-(cyclopropylsulfonyl)-2-(5-aza-spiro[2.5]octan-5-yl)phenyl)-6-trideuteromethyl-1H-pyrrolo[2,3-c]pyridin-7(6H)-one] the IC50 was 0.05 µM. In the case of `[2H]C([2H])([2H])n1cc(-c2cc(S(=O)(=O)C3CC3)ccc2N2CC3(CCC3)C2)c2cc[nH]c2c1=O` [Compound 59, 4-(5-(cyclopropylsulfonyl)-2-(2-aza-spiro[3.3]heptan-2-yl)phenyl)-6-trideuteromethyl-1H-pyrrolo[2,3-c]pyridin-7(6H)-one], the IC50 is reported as 0.065 µM. `[2H]C([2H])([2H])n1cc(-c2cc(S(C)(=O)=O)ccc2N2CC3(CCC3)C2)c2cc[nH]c2c1=O` [Compound 60, 6-trideuteromethyl-4-(5-(methylsulfonyl)-2-(2-aza-spiro[3.3]heptan-2-yl)phenyl)-1H-pyrrolo[2,3-c]pyridin-7(6H)-one] showed an IC50 of 0.039 µM. In the case of `[2H]C([2H])([2H])n1cc(-c2cc(S(=O)(=O)C3COC3)ccc2N2CC3(CCC3)C2)c2cc[nH]c2c1=O` [Compound 61, 6-trideuteromethyl-4-(5-(oxetane-3-ylsulfonyl)-2-(2-aza-spiro [3.3]heptan-2-yl)phenyl)-1H-pyrrolo[2,3-c]pyridin-7(6H)-one], the IC50 is reported as 0.105 µM. `[2H]C([2H])([2H])n1cc(-c2cc(S(=O)(=O)CCCC)ccc2N2CC3(CCC3)C2)c2cc[nH]c2c1=O` [Compound 62] was tested, and the IC50 was 0.13 µM. `[2H]C([2H])([2H])n1cc(-c2cc(S(=O)(=O)CC)ccc2N2CC3(CCC3)C2)c2cc[nH]c2c1=O` [Compound 63, 4-(5-(ethylsulfonyl)-2-(2-aza-spiro[3.3]heptan-2-yl)phenyl)-6-trideuteromethyl-1H-pyrrolo[2,3-c]pyridin-7(6H)-one] was tested, and the IC50 was 0.06 µM. Compound `[2H]C([2H])([2H])n1cc(-c2cc(S(C)(=O)=O)ccc2N2CC3(COC3)C2)c2cc[nH]c2c1=O` [Compound 64, 6-trideuteromethyl-4-(5-(methylsulfonyl)-2-(2-oxa-6-aza-spiro[3.3]heptan-6-yl)phenyl)-1H-pyrrolo[2,3-c]pyridin-7(6H)-one] has an IC50 of 0.38 µM. Work on `[2H]C([2H])([2H])n1cc(-c2cc(S(=O)(=O)CC)ccc2N2CC3(COC3)C2)c2cc[nH]c2c1=O` [Compound 65, 4-(5-(ethylsulfonyl)-2-(2-oxa-6-aza-spiro[3.3]heptan-6-yl)phenyl)-6-trideuteromethyl-1H-pyrrolo[2,3-c]pyridin-7(6H)-one] yielded an IC50 of 0.41 µM. With `[2H]C([2H])([2H])n1cc(-c2cc(S(=O)(=O)CCCC)ccc2N2CC3(COC3)C2)c2cc[nH]c2c1=O` [Compound 66, 4-(5-(butylsulfonyl)-2-(2-oxa-6-aza-spiro[3.3]heptan-6-yl)phenyl)-6-trideuteromethyl-1H-pyrrolo[2,3-c]pyridin-7(6H)-one] the IC50 was 0.52 µM. For `[2H]C([2H])([2H])n1cc(-c2cc(S(=O)(=O)C3CC3)ccc2N2CC3(COC3)C2)c2cc[nH]c2c1=O` [Compound 67, 4-(5-(cyclopropylsulfonyl)-2-(2-oxa-6-aza-spiro[3.3]heptan-6-yl)phenyl)-6-trideuteromethyl-1H-pyrrolo[2,3-c]pyridin-7(6H)-one], the IC50 was 0.49 µM. `[2H]C([2H])([2H])n1cc(-c2cc(S(C)(=O)=O)ccc2N2CCC3(CC2)CC3C(=O)OCC)c2cc[nH]c2c1=O` (stereo not drawn) [Compound 68, ethyl 6-(2-(6-trideuteromethyl-7-oxo-6,7-dihydro-1H-pyrrolo [2,3-c]pyridin-4-yl)-4-(methylsulfonyl)phenyl)-6-aza-spiro[2.5]octan-1-carboxylate] gave an IC50 of 0.53 µM. With `[2H]C([2H])([2H])n1cc(-c2cc(S(C)(=O)=O)ccc2N2CCC3(CC2)CC3C(=O)O)c2cc[nH]c2c1=O` (stereo not drawn) [Compound 69, 6-(2-(6-trideuteromethyl-7-oxo-6,7-dihydro-1H-pyrrolo[2,3-c]pyridin-4-yl)-4-(methylsulfonyl)phenyl)-6-aza-spiro[2.5]octan-1-carboxylic acid] the IC50 was 0.57 µM. In the case of `CCCCS(=O)(=O)Nc1ccc(N2CCC3(CC2)CC3)c(-c2cn(C)c(=O)c3[nH]ccc23)c1` [Compound 70, N-(3-(6-methyl-7-oxo-6,7-dihydro-1H-pyrrolo[2,3-c]pyridin-4-yl)-4-(6-aza-spiro[2.5]octan-6-yl)phenyl)butyl-1-sulfonamide], the IC50 is reported as 0.13 µM. In the case of `Cn1cc(-c2cc(NS(C)(=O)=O)ccc2N2CCCC3(CC3)C2)c2cc[nH]c2c1=O` [Compound 71, N-(3-(6-methyl-7-oxo-6,7-dihydro-1H-pyrrolo[2,3-c]pyridin-4-yl)-4-(5-aza-spiro[2.5]octan-5-yl)phenyl)methylsulfonamide], the IC50 is reported as 0.094 µM. `Cn1cc(-c2cc(S(C)(=O)=O)ccc2N2CCC3(CC2)COC3)c2cc[nH]c2c1=O` [Compound 177, 6-methyl-4-(5-(methylsulfonyl)-2-(2-oxa-7-aza-spiro[3.5]nonan-7-yl)phenyl)-1H-pyrrolo[2,3-c]pyridin-7(6H)-one] gave an IC50 of 0.017 µM. With `Cn1cc(-c2cc(S(C)(=O)=O)ccc2N2CCC3(CC2)CC3CO)c2cc[nH]c2c1=O` (stereo not drawn) [Compound 179, 4-(2-(1-(hydroxymethyl)-6-aza-spiro[2.5]octan-6-yl)-5-(methylsulfonyl)phenyl)-6-methyl-1H-pyrrolo[2,3-c]pyridin-7(6H)-one] the IC50 was 0.051 µM. Compound `Cn1cc(-c2cc(S(C)(=O)=O)ccc2N2CCC3(CC2)CC3C(N)=O)c2cc[nH]c2c1=O` (stereo not drawn) [Compound 180, 6-(2-(6-methyl-7-oxo-6,7-dihydro-1H-pyrrolo[2,3-c]pyridin-4-yl)-4-(methylsulfonyl)phenyl)-6-aza-spiro[2.5]octan-1-formamide] has an IC50 of 0.46 µM. Compound `Cc1c[nH]c2c(=O)n(C)cc(-c3cc(S(C)(=O)=O)ccc3N3CCC4(CC3)CC4)c12` [Compound 182, 3,6-dimethyl-4-(5-(methylsulfonyl)-2-(6-aza-spiro[2.5]octan-6-yl)phenyl)-1H-pyrrolo[2,3-c]pyridin-7(6H)-one] has an IC50 of 0.04 µM. With `[2H]C([2H])([2H])n1cc(-c2cc(S(C)(=O)=O)ccc2N2CCC3(CC2)COC3)c2cc[nH]c2c1=O` [Compound 183, 6-trideuteromethyl-4-(5-(methylsulfonyl)-2-(2-oxa-7-aza-spiro [3.5]nonan-7-yl)phenyl)-1H-pyrrolo[2,3-c]pyridin-7(6H)-one] the IC50 was 0.063 µM. In the case of `[2H]C([2H])([2H])n1cc(-c2cc(S(C)(=O)=O)ccc2N2CCC3(CC2)CC3C(N)=O)c2cc[nH]c2c1=O` (stereo not drawn) [Compound 185, 6-(2-(6-trideuteromethyl-7-oxo-6,7-dihydro-1H-pyrrolo[2,3-c]pyridin-4-yl)-4-(methylsulfonyl)phenyl)-6-aza-spiro[2.5]octan-1-formamide], the IC50 is reported as 1.04 µM. In the case of `[2H]C([2H])([2H])n1cc(-c2cc(S(=O)(=O)CC)cnc2N2CCC3(CC2)CC3)c2cc[nH]c2c1=O` [Compound 186, 4-(5(ethylsulfonyl)-2-(6-aza-spiro[2.5]octan-6-yl)pyridin-3-yl)-6-trideuteromethyl-1H-pyrrolo[2,3-c]pyridin-7(6H)-one], the IC50 is reported as 0.021 µM.
